{"source": "patent US20240108585A1", "about": "“COMPOSITIONS COMPRISING LIPID-BASED NANOPARTICLES FOR TREATING DIABETES MELLITUS” (SDG, Inc., priority 2018, published 2024)", "key": {"[1]": {"tested_on": "adult Type 1 diabetes mellitus", "assay": "Example 3: double-blinded randomized six-week parallel study, HDV lispro vs lispro, multiple daily injections, CGM", "format": "in vivo, human", "text": "A double-blinded, randomized study was run comparing the efficacy of HDV lispro vs. lispro to treat adult Type 1 diabetes mellitus. The study involved 43 (1:1) subjects (who were considered to be in good control, with HbA1c levels between 7-8%) and was a six-week parallel design study, with multiple daily injections. The baseline HbA1c was 7.35 (HDV group) and 7.39 (lispro group). The primary endpoint was a two-hour reduction in glucose time out of range."}, "[2]": {"tested_on": "type 1 diabetes mellitus (T1DM)", "assay": "ISLE-1: 26-week Phase 2b multicenter randomized double-blind non-inferiority trial, HDV-L vs LIS, multiple daily injections", "text": "ISLE-1 was a 26-week, Phase 2b, multicenter, randomized, double-blind, non-inferiority trial.\nISLE-1 was a 26-week, Phase 2b, multicenter, randomized, double-blind, trial in T1DM treated with multiple daily injections (MDI) of insulin.\nMain inclusion criteria were: age ≥18 years; T1D for ≥12 months; A1c ≥7.0 ([…]) to ≤10.5% (≤91 mmol/mol); treated with insulins glargine or detemir for basal coverage. Main exclusion criteria were total insulin dose ≥1.5 IU/kg/day or NPH insulin as basal.\nPrandial dosing of HDV-lispro or control lispro was 15 minutes prior to the meal, and basal insulins were administered either as a single daily dose or a divided twice per day dosing, every 12 hours.\nInformed of −10% dilution, participants continued their current insulin parameters. Hypoglycemia was recorded on Case Report Forms (CRFs) based on subject diaries and SMBG records, subjectively investigator-judged as “mild,” “moderate,” “severe,” or “life threatening.” Blinded continuous glucose monitoring (CGM) (Dexcom G4) was used for 5-7 days to assess glucose at baseline, weeks 13 and 26. A1c, lipids, and liver enzymes were measured approximately monthly. Liver fat content MRIs were performed in a subset.\nThe intent to treat (ITT) population included all randomized subjects receiving at least one dose of study treatment. Safety analyses included all randomized subjects. […] Mean A1c change was analyzed using ANCOVA within intent-to-treat (ITT) cohort at each visit. Post hoc subgroup analyses (baseline A1c <8.5% vs ≥8.5%) were performed, this cut point corresponding to pre-specified randomization strata. Direct likelihood models were used for treatment arm A1c comparisons, % time <54 mg/dL, bolus insulin, and basal insulin within the two A1c subgroups. Poisson regression models adjusting for site as random effect compared “severe” hypoglycemia incidence rates within A1c groups, testing for baseline A1c by treatment group interaction. Event number/subject was truncated at 15, accounting for extreme outliers."}, "[3]": {"tested_on": "adult Type 1 diabetes mellitus", "assay": "Example 2 pump study: randomized double-blinded two-way crossover, HDV lispro vs lispro by insulin pump, CGM and mixed meal test", "format": "in vivo, human", "settings": "baseline HbA1c 7.19; 3-week pump period; 7 subjects", "text": "A study was run comparing the efficacy of HDV lispro vs. lispro to treat adult Type 1 diabetes mellitus when administered by pump. The study involved 7 subjects and was a randomized, double-blinded two-way crossover study. The dosing duration was 3-week on standard insulin x 3-week on HDV-insulin with infusion via standard commercial insulin pumps, and a mixed meal test was employed; continuous glucose monitoring was achieved via blinded Dexcom G4 Platinum Continuous Glucose Monitor. The baseline HbA1c was 7.19, and the ending HbA1c was 7.21 (for the HDV group) and 7.08 (for the lispro group)."}}, "data": [{"substance": "insulin lispro", "values": [{"measurement": "Time in Range (70-180 mg/dL), increase", "setting": "[1]", "value": "*No Change in Lispro Group"}, {"measurement": "Time in Target (70-140 mg/dL), increase", "setting": "[1]", "value": "*No Change in Lispro Group"}, {"measurement": "treatment-related serious adverse events", "setting": "[2]; 26 weeks", "value": "No treatment-related serious adverse events were reported"}, {"measurement": "Mean change in A1c baseline to Week 26", "setting": "[2]; all subjects, HDV-L n=118, LIS n=58", "value": "−0.16", "unit": "%"}, {"measurement": "change in A1c over time", "setting": "[2]; baseline A1c <8.5%", "value": "little change"}, {"measurement": "time <54 mg/dL during Week 26 (median)", "setting": "[2]; baseline A1c <8.5%, CGM, p=0.16", "value": 0.6, "unit": "%"}, {"measurement": "CRF-reported incidence of \"severe\" hypoglycemia", "setting": "[2]; baseline A1c <8.5%, p=0.001, unit not given", "value": 21}, {"measurement": "percentage time <54 mg/dL during Week 26 (median)", "setting": "[2]; baseline A1c >8.5%, CGM, p=0.09", "value": 2.6, "unit": "%"}, {"measurement": "change in total cholesterol", "setting": "[2]; over the study", "value": 7.3, "unit": "mg/dL"}, {"measurement": "\"life threatening\" hypoglycemia events", "setting": "[2]; whole study", "value": "No “life threatening” events were recorded"}, {"measurement": "ending HbA1c", "setting": "[3]", "value": 7.08}]}]}
